Results: patent US20120034613A1, “Apparatus and Method for Testing Relationships Between Gene Expression and Physical Appearance of Skin” (NSE Products, Inc., priority 2010, published 2012)

System: EpidermFT™ Skin Model (EFT-400) full thickness skin cultures
Assay: Affymetrix GeneChip HG U133 Plus 2.0 microarray global gene expression, agent-exposed vs untreated skin cultures
Format: cell-based, human
Conditions: Salicin 0.5% vs Untreated Control, 24 hr treatment

OCc1ccccc1O[C@@H]1O[C@H](CO)[C@@H](O)[C@H](O)[C@H]1O [Salicin, 2-(Hydroxymethyl)phenyl β-D-glucospyranoside]
up: Direction ABHD2 (221815_at) | Direction ABHD2 (225337_at) | Direction ADAMTS5 (235368_at) | Direction ADAMTS6 (1570351_at) | Direction ADCYAP1 (230237_at) | Direction AHI1 (220841_s_at) | Direction AHI1 (221569_at) | Direction AKR1C1 (1562102_at) | Direction AKT3 (212607_at) | Direction AKT3 (212609_s_at) | Direction AKT3 (222880_at) | Direction AKT3 (224229_s_at) | Direction ALG9 (228817_at) | Direction ANKRD28 (213035_at) | Direction ANKRD28 (229307_at) | Direction ARMC8 (1555281_x_at) | Direction ARNT2 (202986_at) | Direction ATF3 (1554980_a_at) | Direction ATP2A3 (207522_s_at) | Direction BAG2 (209406_at) | Direction BCL2L11 (1558143_a_at) | Direction BNC2 (220272_at) | Direction BNC2 (235723_at) | Direction C1GALT1C1 (238989_at) | Direction C1orf67 /// DNAH14 (242283_at) | Direction C13orf33 (227058_at) | Direction CABLES1 (225532_at) | Direction CARD16 (1552701_a_at) | Direction CCR1 (205098_at) | Direction CDCP1 (1554110_at) | Direction CDR2 (209501_at) | Direction CHST2 (203921_at) | Direction CLGN (205830_at) | Direction CNOT3 (203239_s_at) | Direction CPM (241765_at) | Direction CPM (243403_x_at) | Direction CREM (207630_s_at) | Direction CUL4B (202213_s_at) | Direction CXCL1 (204470_at) | Direction CYP7B1 (207386_at) | Direction CYR61 (210764_s_at) | Direction DENND3 (212975_at) | Direction DENND5B (228551_at) | Direction DGKI (206806_at) | Direction DNAJB9 (202842_s_at) | Direction DNAJB9 (1554462_a_at) | Direction DNAJC10 (221781_s_at) | Direction DNAJC10 (221782_at) | Direction DOCK4 (205003_at) | Direction DOCK5 (230206_at) | Direction DOCK5 (230263_s_at) | Direction DOK6 (236290_at) | Direction DSEL (232825_s_at) | Direction DUSP4 (204015_s_at) | Direction DZIP1 (204557_s_at) | Direction EIF2AK3 (218696_at) | Direction ELL2 (214446_at) | Direction ELTD1 (219134_at) | Direction ENPP1 (205066_s_at) | Direction ENTPD7 (220153_at) | Direction EPS8 (202609_at) | Direction EREG (205767_at) | Direction ERO1LB (220012_at) | Direction FADS1 (208963_x_at) | Direction FADS1 (208964_s_at) | Direction FAM20A (226804_at) | Direction FAM107B (223058_at) | Direction FAM107B (223059_s_at) | Direction FAR2 (220615_s_at) | Direction FAT4 (219427_at) | Direction FEM1B (212374_at) | Direction FGF7 (1555103_s_at) | Direction FGF7 /// KGFLP1 /// KGFLP2 (1554741_s_at) | Direction FHOD3 (218980_at) | Direction FKBP11 (219117_s_at) | Direction FKBP11 (219118_at) | Direction FMN2 (1555471_a_at) | Direction FN1 (214701_s_at) | Direction FN1 (214702_at) | Direction FOXJ3 (217310_s_at) | Direction FPR1 (205119_s_at) | Direction GAS1 (204457_s_at) | Direction GCLM (203925_at) | Direction GCLM (236140_at) | Direction GEM (204472_at) | Direction GFPT1 (226886_at) | Direction GFPT2 (205100_at) | Direction GLIPR1 (204222_s_at) | Direction GRAMD1A (224807_at) | Direction GRAMD1B (212906_at) | Direction GUCY1A3 (221942_s_at) | Direction GUCY1A3 (229530_at) | Direction HERC3 (1554290_at) | Direction HEY1 (44783_s_at) | Direction HIST1H2AB /// HIST1H2AE (214469_at) | Direction HIST1H2AD /// HIST1H3A /// HIST1H3B /// HIST1H3C /// HIST1H3D /// HIST1H3E /// HIST1H3F /// HIST1H3G /// HIST1H3H /// HIST1H3I /// HIST1H3J (214472_at) | Direction HIST2H2AA3 /// HIST2H2AA4 (214290_s_at) | Direction HK2 (222305_at) | Direction HOXB2 (205453_at) | Direction HSD17B2 (204818_at) | Direction HSPA13 (202557_at) | Direction ID2 /// ID2B (213931_at) | Direction IGFBP5 (211958_at) | Direction ING1 (209808_x_at) | Direction IRAK2 (231779_at) | Direction IRAK3 (220034_at) | Direction ITPRIP (225582_at) | Direction JHDM1D (225142_at) | Direction KCNA3 (207237_at) | Direction KCNE4 (222379_at) | Direction KCNE4 (1552508_at) | Direction KCNJ8 (205303_at) | Direction KCNJ8 (205304_s_at) | Direction KLF15 (231015_at) | Direction KLHL29 (229310_at) | Direction LCP1 (208885_at) | Direction LOC285628 (232504_at) | Direction LOC440028 (1562606_a_at) | Direction LOC729222 /// PPFIBP1 (214375_at) | Direction LOC100128821 /// ZEB2 (235593_at) | Direction LOC100132244 (229438_at) | Direction LPAR1 (204036_at) | Direction LPAR1 (204037_at) | Direction LPAR1 (204038_s_at) | Direction LPPR4 (213496_at) | Direction LRCH2 (227688_at) | Direction LRRK2 (229584_at) | Direction MAGEA4 (214254_at) | Direction MAP3K4 (216199_s_at) | Direction MAP3K5 (203836_s_at) | Direction MAP9 (220145_at) | Direction MASP1 (232224_at) | Direction MASP1 (235770_at) | Direction MESDC1 (223264_at) | Direction MGST1 (239001_at) | Direction MMD (203414_at) | Direction MTHFD2L (220346_at) | Direction MYO3B (1552578_a_at) | Direction NAMPT (217738_at) | Direction NEGR1 (1553194_at) | Direction NEXN (226103_at) | Direction NFKB2 (207535_s_at) | Direction NFKBIZ (223217_s_at) | Direction NOVA1 (205794_s_at) | Direction NR4A1 (202340_x_at) | Direction NRP2 (228699_at) | Direction OLAH (222945_x_at) | Direction PAPPA (201981_at) | Direction PAPPA (224940_s_at) | Direction PAPPA (224941_at) | Direction PAPPA (228128_x_at) | Direction PAPPA (1559400_s_at) | Direction PCDH7 (210941_at) | Direction PCSK1 (205825_at) | Direction PDE4D (211840_s_at) | Direction PEG10 (212092_at) | Direction PF4 (206390_x_at) | Direction PGM2L1 (229256_at) | Direction PHLDA1 (217996_at) | Direction PHTF1 (215285_s_at) | Direction PI15 (229947_at) | Direction PID1 (219093_at) | Direction PID1 (237867_s_at) | Direction PISD (202392_s_at) | Direction PITPNC1 (238649_at) | Direction PLAUR (211924_s_at) | Direction PLEKHA3 (223370_at) | Direction PTGER4 (204897_at) | Direction PTGES (207388_s_at) | Direction PTGES (210367_s_at) | Direction PTGS1 (205128_x_at) | Direction PTGS1 (215813_s_at) | Direction PTHLH (206300_s_at) | Direction PTHLH (211756_at) | Direction PTPRG (204944_at) | Direction QKI (228540_at) | Direction RAB3B (205924_at) | Direction RAB3B (227123_at) | Direction RAB23 (220955_x_at) | Direction RABGGTB (209180_at) | Direction RABGGTB (213704_at) | Direction RAI14 (202052_s_at) | Direction RASSF8 (235996_at) | Direction RGS3 (203823_at) | Direction RGS5 (209070_s_at) | Direction RGS12 (242079_at) | Direction RHOQ (212122_at) | Direction SEC24A (212902_at) | Direction SEMA3A (206805_at) | Direction SETDB2 (235339_at) | Direction SGK1 (201739_at) | Direction SH3RF3 (228461_at) | Direction SHOX (207570_at) | Direction SLC6A15 (232263_at) | Direction SLC11A2 (237106_at) | Direction SLC20A1 (230494_at) | Direction SLC43A3 (210692_s_at) | Direction SLFN11 (226743_at) | Direction SLIT2 (209897_s_at) | Direction SNHG12 (223774_at) | Direction SOCS2 (203373_at) | Direction SPON1 (209437_s_at) | Direction SPON1 (213993_at) | Direction SQSTM1 (213112_s_at) | Direction ST3GAL1 (208322_s_at) | Direction ST3GAL1 (225033_at) | Direction STK17B (205214_at) | Direction SULF1 (212344_at) | Direction TAF1A (206613_s_at) | Direction TAGLN (205547_s_at) | Direction TBC1D1 (212350_at) | Direction TBC1D1 (227945_at) | Direction TGM2 (201042_at) | Direction THBS1 (201108_s_at) | Direction THBS1 (239336_at) | Direction THRAP3 (242163_at) | Direction TMEM38B (222735_at) | Direction TMEM38B (222736_s_at) | Direction TMEM39A (218615_s_at) | Direction TMEM39A (222690_s_at) | Direction TMTC1 (226322_at) | Direction TMTC1 (226931_at) | Direction TNC (216005_at) | Direction TNFAIP6 (206026_s_at) | Direction TNIP3 (220655_at) | Direction TRPA1 (217590_s_at) | Direction TRPC4 (224220_x_at) | Direction UBE2B (239163_at)
